Here are results for ten compounds from US11814367B2, “Inhibitors of glycogen synthase 1 (GYS1) and methods of use thereof” (Maze Therapeutics, Inc., priority 2021, dated 2023).

SMILES strings stand for the structures.

Test [1] concerns the target hGYS2 enzyme (recombinant hGYS2/GN1 protein) (Homo sapiens (Human), UniProt P54840). The experiment in a line: GYS2 coupled enzyme assay (PK/LDH). Conditions: geometric mean of at least 2 assay runs on separate days, read-out: Avg_IC50. It counts as biochemical. Summed up: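 Read-out: NADH loss at 340 nm, read each minute for 10 min, slope normalized to controls, duplicate % inhibition fit to Hill (0–100). Enzyme: 200 nM hGYS2/GN1; substrate 2 mM UDP-glucose plus 0.2% glycogen and 2 mM G6P; pH 7.5 Tris, 2.5% DMSO.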

The target in test [2] is hGYS1 enzyme (recombinant hGYS1/GN1 protein) (Homo sapiens (Human), UniProt P13807). The experiment in a line: GYS1 coupled enzyme assay (PK/LDH). It counts as biochemical. Conditions: hGYS1/GN1 50 nM, UDP-Glucose 0.8 mM, G6P 1 mM; geometric mean of at least 2 runs.
Sequence of hGYS1 enzyme (recombinant hGYS1/GN1 protein) (P13807 whole entry): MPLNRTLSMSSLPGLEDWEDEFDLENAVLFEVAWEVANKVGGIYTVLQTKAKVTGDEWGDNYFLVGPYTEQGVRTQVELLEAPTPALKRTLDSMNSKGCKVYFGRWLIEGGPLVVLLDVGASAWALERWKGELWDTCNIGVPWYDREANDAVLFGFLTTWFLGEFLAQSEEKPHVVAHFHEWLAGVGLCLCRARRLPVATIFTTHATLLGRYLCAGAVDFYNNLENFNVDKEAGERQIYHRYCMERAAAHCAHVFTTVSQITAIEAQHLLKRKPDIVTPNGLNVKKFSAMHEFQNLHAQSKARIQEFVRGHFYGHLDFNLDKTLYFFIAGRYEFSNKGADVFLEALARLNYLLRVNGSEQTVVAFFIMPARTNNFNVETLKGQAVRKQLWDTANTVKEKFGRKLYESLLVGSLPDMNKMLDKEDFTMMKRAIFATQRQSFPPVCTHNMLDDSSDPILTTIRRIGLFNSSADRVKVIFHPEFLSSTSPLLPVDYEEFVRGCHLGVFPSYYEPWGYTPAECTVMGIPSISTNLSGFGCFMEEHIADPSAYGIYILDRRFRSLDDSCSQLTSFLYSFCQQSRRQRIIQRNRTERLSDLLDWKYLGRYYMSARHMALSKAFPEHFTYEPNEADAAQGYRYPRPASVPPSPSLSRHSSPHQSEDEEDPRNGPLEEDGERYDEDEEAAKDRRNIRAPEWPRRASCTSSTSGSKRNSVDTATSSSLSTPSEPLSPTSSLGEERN
Sequence of hGYS1 enzyme (recombinant hGYS1/GN1 protein) (P46976 whole entry partner): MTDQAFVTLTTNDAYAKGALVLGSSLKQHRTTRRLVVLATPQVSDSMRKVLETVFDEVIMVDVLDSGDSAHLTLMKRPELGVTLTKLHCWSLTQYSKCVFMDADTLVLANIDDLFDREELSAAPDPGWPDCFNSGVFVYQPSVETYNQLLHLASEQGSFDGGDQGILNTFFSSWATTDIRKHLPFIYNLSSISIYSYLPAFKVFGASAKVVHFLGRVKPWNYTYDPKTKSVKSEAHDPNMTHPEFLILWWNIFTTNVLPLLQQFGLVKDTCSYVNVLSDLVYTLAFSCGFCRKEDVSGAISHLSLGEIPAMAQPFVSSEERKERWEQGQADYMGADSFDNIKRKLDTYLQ

Sequence of hGYS2 enzyme (recombinant hGYS2/GN1 protein) (P54840 whole entry): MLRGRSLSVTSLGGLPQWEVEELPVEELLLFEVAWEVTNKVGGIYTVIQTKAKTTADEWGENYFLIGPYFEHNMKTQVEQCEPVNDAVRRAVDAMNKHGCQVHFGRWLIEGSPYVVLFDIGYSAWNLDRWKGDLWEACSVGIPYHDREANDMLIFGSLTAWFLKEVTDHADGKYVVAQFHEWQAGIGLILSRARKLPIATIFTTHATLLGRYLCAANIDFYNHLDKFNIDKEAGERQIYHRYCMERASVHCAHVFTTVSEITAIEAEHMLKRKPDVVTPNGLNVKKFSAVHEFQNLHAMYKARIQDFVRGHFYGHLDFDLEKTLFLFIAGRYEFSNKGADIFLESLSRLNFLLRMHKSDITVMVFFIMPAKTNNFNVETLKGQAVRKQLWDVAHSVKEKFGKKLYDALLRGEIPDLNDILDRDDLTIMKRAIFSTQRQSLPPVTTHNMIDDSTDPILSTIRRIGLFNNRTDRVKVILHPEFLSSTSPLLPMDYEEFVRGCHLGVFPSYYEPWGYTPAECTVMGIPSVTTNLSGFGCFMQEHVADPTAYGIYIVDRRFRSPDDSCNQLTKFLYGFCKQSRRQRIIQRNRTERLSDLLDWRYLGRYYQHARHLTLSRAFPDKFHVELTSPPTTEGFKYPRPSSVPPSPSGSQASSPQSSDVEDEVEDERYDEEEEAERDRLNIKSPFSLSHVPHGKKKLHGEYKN
Sequence of hGYS2 enzyme (recombinant hGYS2/GN1 protein) (P46976 whole entry partner): as the sequence (P46976 whole entry partner) above

For `CC(C)c1ccc([C@@H](NC(=O)[C@@H]2C[C@@H](F)CN2C(=O)CCc2ccc(=O)[nH]n2)c2ccccc2)cc1` [Compound 114, (2S,4R)-4-fluoro-1-[3-(6-oxo-1,6-dihydropyridazin-3-yl)propanoyl]-N-[(S)-phenyl[4-(propan-2-yl)phenyl]methyl]pyrrolidine-2-carboxamide], the IC50 is more than 100000 nM in test [1] and 208 nM in test [2].
Taken in the same sequence, the figures for `CC(C)c1ccc([C@@H](NC(=O)[C@@H]2C[C@@H](F)CN2C(=O)CN2C(=O)CNC2=O)c2ccccc2)cc1` [Compound 117, (2S,4R)-1-[2-(2,5-dioxoimidazolidin-1-yl)acetyl]-4-fluoro-N-[(S)-phenyl[4-(propan-2-yl)phenyl]methyl]pyrrolidine-2-carboxamide] were more than 100000 nM and 49 nM.
Taken in the same sequence, the figures for `CC(C)c1ccc([C@@H](NC(=O)[C@@H]2C[C@@H](F)CN2C(=O)Cc2ccc3ncnn3c2)c2ccccc2)cc1` [Compound 118, (2S,4R)-4-fluoro-N-[(S)-phenyl[4-(propan-2-yl)phenyl]methyl]-1-(2-{[1,2,4]triazolo[1,5-a]pyridin-6-yl}acetyl)pyrrolidine-2-carboxamide] were more than 100000 nM and 20 nM.
Taken in the same sequence, the figures for `CC(C)c1ccc([C@@H](NC(=O)[C@@H]2C[C@@H](F)CN2C(=O)Cc2noc3ccccc23)c2ccccc2)cc1` [Compound 119, (2S,4R)-1-[2-(1,2-benzoxazol-3-yl)acetyl]-4-fluoro-N-[(S)-phenyl[4-(propan-2-yl)phenyl]methyl]pyrrolidine-2-carboxamide] were more than 100000 nM and 109 nM.
Consider `CC(C)c1ccc([C@@H](NC(=O)[C@@H]2C[C@@H](F)CN2C(=O)Cc2cnc3ccccn23)c2ccccc2)cc1` [Compound 121], for which the IC50 is more than 100000 nM in test [1] and 15 nM in test [2].
For the compound `Cc1cc(C)n(CC(=O)N2C[C@H](F)C[C@H]2C(=O)N[C@@H](c2ccccc2)c2ccc(C(C)C)cc2)n1` [Compound 125, (2S,4R)-1-[2-(3,5-dimethyl-1H-pyrazol-1-yl)acetyl]-4-fluoro-N-[(S)-phenyl[4-(propan-2-yl)phenyl]methyl]pyrrolidine-2-carboxamide], the IC50 in test [1] was more than 100000 nM; in test [2], 23 nM.
Consider `CC(C)c1ccc([C@@H](NC(=O)[C@@H]2C[C@@H](F)CN2C(=O)Cn2ccc3c(F)cccc32)c2ccccc2)cc1` [Compound 128, (2S,4R)-4-fluoro-1-[2-(4-fluoro-1H-indol-1-yl)acetyl]-N-[(S)-phenyl[4-(propan-2-yl)phenyl]methyl]pyrrolidine-2-carboxamide], for which the values for the IC50 in test [1] and in test [2] were more than 100000 nM and 56 nM, respectively.
Taken in the same sequence, the figures for `CC(C)c1ccc([C@@H](NC(=O)[C@@H]2C[C@@H](F)CN2C(=O)CS(=O)(=O)N2CCCC2)c2ccccc2)cc1` [Compound 129, (2S,4R)-4-fluoro-N-[(S)-phenyl[4-(propan-2-yl)phenyl]methyl]-1-[2-(pyrrolidine-1-sulfonyl)acety]pyrrolidine-2-carboxamide] were more than 100000 nM and 217 nM.
For `CC(C)c1ccc([C@@H](NC(=O)[C@@H]2C[C@@H](F)CN2C(=O)Cc2cccc3ncccc23)c2ccccc2)cc1` [Compound 130, (2S,4R)-4-fluoro-N-[(S)-phenyl[4-(propan-2-yl)phenyl]methyl]-1-[2-(quinolin-5-yl)acetyl]pyrrolidine-2-carboxamide] the same measures were more than 100000 nM and 7 nM.
In the case of `COc1ccc(CC(=O)N2C[C@H](F)C[C@H]2C(=O)N[C@@H](c2ccccc2)c2ccc(C(C)C)cc2)c(C#N)c1` [Compound 133, (2S,4R)-1-[2-(2-cyano-4-methoxyphenyl)acetyl]-4-fluoro-N-[(S)-phenyl[4-(propan-2-yl)phenyl]methyl]pyrrolidine-2-carboxamide], the IC50 is more than 100000 nM in test [1] and 10 nM in test [2].
